Test results: patent US6673840B1, “Use of lipoxygenase metabolite of arachidonic acid and its derivatives in capsaicin-channel agonist” (priority 1998, dated 2004)
Entries after “also recorded” stand apart in the source; their conditions may differ.

Legend:
[1] = tested on: sensory nerve fibers (c-fibers) of the skin; assay: skin-nerve preparation, action potentials of cutaneous pain nerve c-fibers; design: species or system rats
Method: To recognize whether the excitation of BK on nerve cells is accomplished via the arachidonic acid-lipoxygenase-CAP pathway, in vivo, a measurement was made on the action potentials in the sensory nerve fibers of the rats, as shown in FIGS. 13a and 13b. particularly, pain nerves which exist in the skin were isolated, together with a overlapping area of the skin, and the action potentials were measured from the nerve filaments using skin-nerve preparation (Reeh, 1998; Steen et al., 1992, 1995) as schematically illustrated in FIG. 13a. While unit action potentials measured at the sensory nerve fibers isolated from the skin, frequencies of the action potentials induced by the administration of BK were recorded. An increase in frequency of the action potentials means excitation of the sensory nerves.
The transmission speed of nerve signals were measured and only c-fibers (non-myelinated sensory nerve fibers) were used in the BK response experiment. The reason why c-fibers are used only is that they consist mainly of pain nerve cells (Willis and Coggeshall, 1991; Yaksh, 1986).
With reference to FIG. 13b, there are illustrated the action potential behaviors of the cutaneous pain nerve in response to agonist and antagonist samples. […] In order to recognize whether the nerve excitation of BK was attributed to the opening of CAP channels, CZP was administered at a dose of 10 μM, together with BK, to the skin. […] An experiment in which BK was administered alone or in combination with CZP to the skin, was repeated 20 times with the aim of testing the influence which BK and a combination of BK and CZP had on the activation of nerve cells, and the results are summarized as shown in FIG. 13c.
When the sensory nerve fibers were excited in response to BK, inhibitors against the enzymes required for the arachidonic acid-lipoxygenase-CAP receptor pathway were used in order to identify whether the response passed through the pathway. In the histogram of FIG. 14, the bar length of each inhibitor represents % activation relative to the activation effect obtained when BK was used alone in absence of any inhibitor. For example, CZP, if added along with BK, suppressed the activation response to BK by approximately […].

[2] = biological target: T1, CAP channel (Rattus norvegicus, UniProt O35433); assay: single channel current recording with patch clamp technique, inside-out membrane patches of cultured sensory neurons; format: cell-based; settings: for generation of single channel currents (activation of CAP channel): applied to intracellular side of membrane patch, CAP 0.5 μM, 12-HPETE 2 μM; for Hill coefficient: concentration-response curve of channel activation; for amplitude of the single channel currents: membrane potential of 60 mV; for relative agonistic potency (Po as percentage of Po at 0.5 μM CAP): metabolites at 10~20 μM
T1 construct: administered at an amount of 10˜20 μM to the membrane patches of cultured sensory neurons; endogenous in cells; host or cells: cultured sensory neurons (inside-out membrane patches)
T1 sequence (O35433 whole entry): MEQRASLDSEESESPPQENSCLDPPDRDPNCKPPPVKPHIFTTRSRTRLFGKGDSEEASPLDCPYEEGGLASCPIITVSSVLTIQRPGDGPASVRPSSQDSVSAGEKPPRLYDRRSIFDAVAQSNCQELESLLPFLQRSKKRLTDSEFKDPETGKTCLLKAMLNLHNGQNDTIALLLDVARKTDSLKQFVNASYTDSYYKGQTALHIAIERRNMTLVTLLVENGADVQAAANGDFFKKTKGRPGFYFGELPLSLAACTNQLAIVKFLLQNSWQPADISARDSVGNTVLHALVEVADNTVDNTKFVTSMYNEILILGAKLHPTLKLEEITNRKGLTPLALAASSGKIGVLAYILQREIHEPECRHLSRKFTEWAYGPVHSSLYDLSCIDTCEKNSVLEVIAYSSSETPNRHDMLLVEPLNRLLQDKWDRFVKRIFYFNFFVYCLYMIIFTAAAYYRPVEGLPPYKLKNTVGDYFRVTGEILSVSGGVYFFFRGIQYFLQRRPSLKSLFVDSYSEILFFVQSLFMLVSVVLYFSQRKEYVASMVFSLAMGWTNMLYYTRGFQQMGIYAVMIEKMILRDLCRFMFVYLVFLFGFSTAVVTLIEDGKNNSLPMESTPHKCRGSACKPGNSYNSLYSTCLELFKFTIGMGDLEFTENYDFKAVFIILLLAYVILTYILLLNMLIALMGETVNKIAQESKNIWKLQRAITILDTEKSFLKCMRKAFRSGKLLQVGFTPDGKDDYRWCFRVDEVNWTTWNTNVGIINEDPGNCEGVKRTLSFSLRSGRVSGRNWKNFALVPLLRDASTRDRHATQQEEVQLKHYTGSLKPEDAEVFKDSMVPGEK
Method: In the present invention, use was made of a single channel recording method with the aid of a patch clamp technique (Hamill et al., Pfl gers Arch 391:85-100, 1981) in order to know whether lipoxygenase metabolites activate CAP channels or receptors or not. […] Because the tests are performed in isolated membrane patches without the mediation of intracellular second messengers, lipoxygenase metabolites are believed to exert a direct action on the CAP channel.
An examination was made on the efficiency with which the various lipoxygenase metabolites activate CAP channels. To this end, a patch clamp technique was used to record the single channel current generated in the CAP channel to which various lipoxygenase metabolites were applied to measure the open probability (Po) of the CAP channel. To compare the relative potency of each metabolite, the effects of the lipoxygenase metabolites on CAP channels were measured with a reference to 0.5 μM CAP.
A single channel current recording method using a patch clamp technique (Hamill et al., supra; Oh et al., 1996a) was used to know whether the lipoxygenase metabolites directly activate the CAP channel.
Because the binding site of CAP was located on the intracellular side of the channel (Oh et al., 1996b), the metabolites were applied to the intracellular sides of cell membrane patches.
In order to compare the agonistic potencies of the various metabolites synthesized by the action of various lipoxygenases, one patch was administered with 0.5 μM of CAP and then, with various lipoxygenase metabolites. At each experiment, the open probabilities (Po) of the channel attributable to the metabolites were recorded and calculated as a percentage to the open probability obtained at 0.5 μM CAP.
All of the lipoxygenase metabolites tested were administered at an amount of 10˜20 μM to the membrane patches of cultured sensory neurons. The relative potency of the metabolites in activating the channel was depicted in FIG. 7. As apparent from this histogram, almost all of the lipoxygenase metabolites, if different in agonistic potency, activate the CAP channel.
12-HPETE was administered at various concentrations from 0.25 to 20 μM to the cell membrane patches of sensory nerve cells, in order to plot a concentration-response curve. As a result, FIG. 8a was obtained. […] Returning now to FIG. 8a, the channel activation currents obtained at each 12-HPETE concentration were calculated as relative degrees to the channel activation current obtained at 20 μM of 12-HEPETE. The relative channel degrees were plotted against the concentrations of […] 12-HPETE and the resulting plot followed the Hill equation.

[3] = tested on: cultured sensory nerve cells; assay: whole-cell currents in cultured sensory nerve cells in response to BK; format: cell-based; settings: CZP 10 μM; 5 μM of BK
Excerpt: When taking various experimental results previously obtained into account, it was inferred that BK has a possibility to open CAP channels through the arachidonic acid-lipoxygenase pathway. To confirm this inference, an examination was made regarding whether the currents generated in cultured sensory nerve sells in response to BK were diminished by CZP or other lipoxygenase inhibitors. If BK made CAP channel open via the arachidonic acid-lipoxygenase pathway, the current response to BK must be reduced by CZP. However, rarely did the cultured cells respond to BK.

[4] = biological target: T1, CAP channel; assay: single channel current recording with patch clamp technique, inside-out membrane patches of cultured sensory neurons; format: cell-based

Oc1cc2c(cc1O)CN(C(=S)NCCc1ccc(Cl)cc1)CCC2 [CZP, capsazepine]
effect on response of skin nerve to BK ([1]; CZP 10 μM together with BK): Great suppression | effect on single channel currents activated by 12-HPETE ([2]; 10 μM of CZP present): single channel currents were not observed | Po channel open probability ([2]; co-existence of 10 μM of CZP and 10 μM of 12-HPETE): 0.001±0.000002 | effect on current generated by BK [3]: reduced the current

COc1cc(CNC(=O)CCCC/C=C/C(C)C)ccc1O [CAP, capsaicin]
action potentials of the nerve fibers (excitation) ([1]; administered to skin patch, BK 1 μM): largely increased action potentials | generation of single channel currents (activation of CAP channel) [2]: single channel current which was greatly generated | Hill coefficient [2]: 2.4 | amplitude of the single channel currents [2]: 2.72±0.06 pA

CCCCC/C=C\C[C@@H](O)/C=C/C=C/C=C\[C@@H](O)CCCC(=O)O [leukotriene B4]
relative agonistic potency (Po as percentage of Po at 0.5 μM CAP) [2]: poor in the activation potency

CC(Cc1ccc(O)c(O)c1)C(C)Cc1ccc(O)c(O)c1 (centres unmarked) [NDGA, nordihydroguaiaretic acid]
lowering of the activation of BK ([1]; 50 μM of NDGA, relative to BK alone): 70% | effect on single channel current generated by arachidonic acid ([4]; NDGA administered together with arachidonic acid): reversibly controlled depending on the presence or absence of NDGA

CCN(CC)CCCC(C)Nc1c2ccc(Cl)cc2nc2ccc(OC)cc12 (centres unmarked) [QN, Quinacrine]
suppressive effect on the activation response to BK ([1]; relative to BK alone): 70%

CCCCC/C=C\CC(/C=C/C=C\C/C=C\CCCC(=O)O)OO (centres unmarked) [12-HPETE, 12-hydroperoxyeicosatetraenoic acid]
patches in which activation of CAP channels was detected ([2]; 12-HPETE 2-20 μM, of the 97 patch samples tested): 88 patches | Po channel open probability ([2]; 12-HPETE alone, increased from 0.0, n=4): 0.019±0.0002 | reversal potential ([2]; bi-ionic system 140 mM Na+ / 140 mM K+, 2~10 μM 12-HPETE): −1.71±0.49 mV | permeability ratio of K+/Na+ (PK/PNa) ([2]; calculated from bi-ionic system experiment): 1.1 | Hill coefficient [2]: 2.4 | amplitude of the single channel currents [2]: 2.68±0.012 pA | relative agonistic potency (Po as percentage of Po at 0.5 μM CAP) [2]: most potent endogenous agonist; also recorded: highest agonistic potency

CCCCC[C@H](O)/C=C/[C@H]1C(=O)C[C@H](O)[C@@H]1C/C=C\CCCC(=O)O [PGD2]
generation of single channel currents (activation of CAP channel) [2]: no channel currents were generated

COc1ccc2c(c1)c(CC(=O)O)c(C)n2C(=O)c1ccc(Cl)cc1 [INDO, indomethacin]
effect on the BK response ([1]; 2 μM indomethacin): failed to inhibit the BK response

CCCCC[C@H](O)/C=C/[C@H]1[C@H](O)CC(=O)[C@@H]1C/C=C\CCCC(=O)O [PGE2, prostaglandin E2]
generation of single channel currents (activation of CAP channel) [2]: no channel currents were generated

CCCCC[C@H](O)/C=C/[C@@H]1[C@H]2C/C(=C/CCCC(=O)O)O[C@H]2C[C@H]1O [PGI2]
generation of single channel currents (activation of CAP channel) [2]: no channel currents were generated

CCCCC/C=C\C/C=C\C/C=C\C/C=C\CCCC(=O)O [arachidonic acid]
experiments in which channel currents were weakly induced ([4]; arachidonic acid 10 to 50 μM): 54% | experiments in which the CAP channels were not activated ([4]; arachidonic acid 10 to 50 μM): approximately 46% | trials in which the CAP channels were not activated ([4]; arachidonic acid 10 to 50 μM, of 69 trials): 32 trials
